Measured values: patent US20220332839A1, “USE OF PRG4 TO TREAT CANCER” (Lubris LLC, priority 2019, published 2022)

Columns and labels:
Format in all cases: cell-based, human
[1] = system: MDA-MB-231 cell-derived organoids; experiment: Three-dimensional Matrigel culture, proportion of spherical vs invasive organoids
Protocol: For three-dimensional culture assays, 50 μl of ice-cooled 33% growth factor-reduced Matrigel (Corning Incorporated, USA) in complete growth medium, consisting of DMEM containing 10% FBS, penicillin, streptomycin and amphotericin B (Invitrogen, Canada), was added per well of a 96-well flat bottom, ultra-low attachment plate (BD Biosciences, Canada) followed by storing the plate for 1 hour in a 5% CO2 humidified incubator at 37° C. to allow formation of a 1 mm-thick Matrigel bed in the well. Next, approximately 400 isolated MDA-MB-231 cells, suspended in 50 μl ice-cooled 50% Matrigel in complete growth medium, were layered on top of the Matrigel bed per well of the 96-well plate and incubated inside 5% CO2 humidified incubator at 37° C. One hour post addition and 37° C. incubation of Matrigel-cells suspension, 50 μl of complete growth medium was added to cover the solidified Matrigel-cells mixture. The following day and, every third day, the three-dimensional cultures received 50 μl of fresh complete growth medium without or with specified reagents as listed in the figure descriptions. On Day 8 of culture, differential interference contrast (DIC) images were captured of 8 representative organoids from each well, using light microscopy at 30× objective (Olympus IX70, Canada). […] Number of smooth surfaced organoids without any protrusions, designated as “spherical” were counted out of eight representative images in each well and then percentage of spherical organoids in each condition were plotted in bar graphs. Each experiment was performed at least three independent times for statistical analyses.

[2] = system: MDA-MB-231 cell-derived organoids; experiment: Laminin/actin fluorescence staining of 3D organoids; conditions: 8 day old organoids; absence or presence of TGFβ
Protocol: For immunofluorescence analysis of 3D-organoids, 600 MDA-MB-231 cells were grown within 80 μL of 50% Matrigel on top of 80 μL of 33% Matrigel coat in each well of ultra-low attachment 8-well chamber slides (Millipore-Sigma, USA). After DIC imaging on Day 8, the live multicellular structures were fixed with 4% formaldehyde, followed by permeabilization using 0.5% ice-cold Triton X-100 solution and blocking using 10% bovine serum albumin (BSA) in phosphate-buffered saline (PBS). For immunofluorescence analysis of monolayer cell culture, cells were seeded onto wells of a Falcon 8-well chamber culture slides (Corning Incorporated, USA), followed by fixing and permeabilization as described for the 3D cultures, and blocking with 5% BSA and 5% calf serum in PBS. Laminin and CD44 in cells were visualized by subjecting the three-dimensional or monolayer cultures to indirect immunofluorescence using a rat anti-laminin antibody (Abcam, Canada) and rat anti-CD44 antibody (Thermo Fisher, Canada) as the primary antibody, respectively, and Alexa 647-conjugated anti-rat IgG (ThermoFisher, Canada) as the secondary antibody. Actin in cells was visualized by incubating the fixed cultures with tetramethylrhodamine isothiocyanate (TRITC)-conjugated phalloidin (Millipore-Sigma, Canada). The DNA binding dye bisbenzimide (Hoechst 33342; Invitrogen, Canada) was used to detect nuclei. […]

MDA-MB-231 cells = experiment: In vitro scratch assay (migration); conditions: 36 h
Protocol: 5×10^5 MDA-MB-231 cells were seeded in each well of a 12-well tissue culture plate and grown overnight to near confluency in complete growth medium and then overnight serum starved by incubating with 0.2% FBS-containing DMEM medium in a 5% CO2 humidified incubator at 37° C. incubator. […] Scratch closure in each well was followed by imaging the scratch and surrounding cells in each well at 3× objective of a DIC microscope (Olympus IX70) coupled to a digital camera at time 0 h and 36 h after initiating the scratch. Five images were captured along the vertical axis of the scratch for each experimental condition. The width of each scratch was measured at three different positions per image for a total of 15 measurements using ImageJ (National Institutes of Health, USA), and then averaged per experimental condition. The width average at 36 h was subtracted from the width average at 0 h and expressed relative to that at 0 h width for each experimental condition to obtain scratch closure, and expressed as percent scratch closure.

HLE and HLF cells = experiment: HCC trans-well migration assay on fibronectin; conditions: soluble rhPRG4 25 μg/ml; 16 hours
Description: Stable CD44 silencing: HLE and HLF cell lines were transduced with lentiviral particles carrying control non-targeting (V), or specific CD44-targeting shRNA sequences (A to D), and selected with puromycin dihydrochloride (Thermo Fisher Scientific) to obtain stable CD44 silencing, according to manufacturer instructions (OriGene Technologies, Inc., Rockville, Md. 20850, USA). Control-shRNA sequence (V) and CD44-shRNA sequence B were used in all the experiments involving CD44 downregulation.
Trans-well migration assay: The assay was performed as previously described. (Dituri et al., PLoS One 2013. doi:10.1371/journal.pone.0067109). Briefly, 15,000 cells were loaded onto the top chamber of the trans-well, whose membrane was previously coated with fibronectin on the lower surface, and left to migrate for 16 hours in the presence/absence of rhPRG4 (25 μg/ml) diluted in serum-free DMEM medium (+0.5% BSA) in the lower chamber. The cells were then paraformaldehyde-fixed and stained with crystal violet. Five fields/membrane were captured and the number of cells/field was measured.

Row | Substance | TGFβ or LMWHA-induced invasive growth, vector control transfected cells ([1]; 100 pM TGFβ or 400 μg/mL LMWHA, 100 μg/mL rhPRG4) | TGFβ-induced invasive growth of organoids ([1]; 100 pM TGFβ, 8-day, rhPRG4 0.1, 10, 100 μg/mL, KI 10 μM, 4-MU 0.5 mM) | LMWHA-induced invasive growth of 4-MU-treated organoids ([1]; 0.5 mM 4-MU, 400 μg/mL LMWHA, 100 μg/mL rhPRG4) | LMWHA-induced invasive growth of organoids ([1]; LMWHA 10-400 μg/mL, 100 μg/mL rhPRG4, KI 10 μM) | TGFβ and LMWHA-induced invasive growth of organoids ([1]; LMWHA 100 or 400 μg/mL, 100 pM TGFβ, CD44 antibody 2.5 μg/mL, rhPRG4 100 μg/mL) | TGFβ-induced invasive growth, rhPRG4 applied to the Matrigel prior to culture ([1]; Matrigel mixed with 100 μg/mL rhPRG4, 100 pM TGFβ) | invasive growth promoted by overexpressed CD44/FLAG ([1]; absence or presence of TGFβ or LMWHA, 100 μg/mL rhPRG4) | basal lamina (laminin) status and actin organization [2] | scratch closure in the absence or presence of TGFβ (MDA-MB-231 cells; 100 μg/mL rhPRG4) | migration of cells on fibronectin (HLE and HLF cells) | effect of TGFβ on LMWHA-induced invasive growth ([1]; 100 pM TGFβ with LMWHA) | invasive growth of organoids, stimulus alone ([1]; 100 pM TGFβ, LMWHA 10, 100 or 400 μg/mL, 8-day) | scratch closure, TGFβ vs control well (MDA-MB-231 cells; 100 pM TGFβ)
1 | rhPRG4: full-length recombinant human PRG4 (lubricin) glycoprotein produced by CHO-M cells; residues 25-1404 of SEQ ID NO:1 | significantly reversed | drastically repress TGFβ-induced invasiveness | suppressed LMWHA-induced invasive growth | suppressed the ability of LMWHA to promote the invasive growth | suppressed TGFβ and LMWHA-induced invasive growth | sufficient to suppress TGFβ-induced invasive growth | suppressed the ability of overexpressed CD44 to promote invasive growth | promoted cortical actin organization and solid laminin ring formation | significantly delayed the scratch closure process | impairs the migration |  |  | 
2 | TGFβ: recombinant human mature transforming growth factor beta (R&D systems) [reference compound] |  |  |  |  |  |  |  | disrupted basement membrane organization |  |  | further enhanced the ability of LMWHA to induce invasive growth | promoted an invasive growth | increased the scratch closure process
